According to publication PMC7254991, “Design and validation of fibroblast activation protein alpha targeted imaging and therapeutic agents” (Theranostics, 2020):

Target: T1, fibroblast activation protein alpha (FAP) (Homo sapiens, UniProt Q12884)
T1 construct: human FAP expressed on HEK293 cells (HEK293-hFAP)
T1 sequence (Q12884 1-760): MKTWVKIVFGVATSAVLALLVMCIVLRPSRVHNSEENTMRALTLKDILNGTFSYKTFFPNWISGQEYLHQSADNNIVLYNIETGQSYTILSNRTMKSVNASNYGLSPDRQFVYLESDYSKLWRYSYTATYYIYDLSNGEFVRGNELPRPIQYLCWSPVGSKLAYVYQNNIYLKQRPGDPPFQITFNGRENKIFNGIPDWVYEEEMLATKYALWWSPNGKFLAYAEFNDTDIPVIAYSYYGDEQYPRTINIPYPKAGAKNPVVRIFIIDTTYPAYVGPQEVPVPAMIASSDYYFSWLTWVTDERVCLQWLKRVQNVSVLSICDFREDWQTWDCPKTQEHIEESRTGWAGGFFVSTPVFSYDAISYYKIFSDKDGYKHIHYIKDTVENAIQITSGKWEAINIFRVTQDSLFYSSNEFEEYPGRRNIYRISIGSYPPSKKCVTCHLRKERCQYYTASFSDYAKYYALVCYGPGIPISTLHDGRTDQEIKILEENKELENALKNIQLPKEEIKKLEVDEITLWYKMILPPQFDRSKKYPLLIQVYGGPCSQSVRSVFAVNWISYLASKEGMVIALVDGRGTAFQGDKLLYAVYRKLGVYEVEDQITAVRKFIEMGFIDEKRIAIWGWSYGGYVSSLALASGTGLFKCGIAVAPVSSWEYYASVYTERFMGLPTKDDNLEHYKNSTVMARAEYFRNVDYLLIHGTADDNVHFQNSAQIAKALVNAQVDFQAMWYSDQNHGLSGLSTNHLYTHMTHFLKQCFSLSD
Experiment: competition (excess unlabeled FL) against FL-L1-FITC, FL-L1-S0456 and […]mTc-FL-L3 binding on HEK293-hFAP cells
Format: cell-based

For `C[C@H](NC(=O)c1ccnc(CN)c1)C(=O)N1CC(F)(F)C[C@H]1C#N` [compound 8, FL], the “competition (excess unlabeled FL) against FL-L1-FITC, FL-L1-S0456 and 99mTc-FL-L” value was “Blocking of FL-L1-FITC related fluorescence by unlabeled FAP ligand (FL), indicated FAP mediated uptake of FL-L1-FITC in HEK293-hFAP cells”.
